# Test results from PubChem BioAssay (NCI).
#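 A five-concentration, 48-hour dose response in 96-well plates underlies each endpoint, interpolated linearly between surrounding concentrations. GI50: concentration for 50% inhibition of growth. The concentration for full growth arrest is given as TGI.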
# What was measured:
# Assay in all cases: NCI tumour cell line growth inhibition, 48 h
# [1] = tested on: SF-295 CNS
# [2] = tested on: SF-268 CNS
# [3] = tested on: KM12 colon
# [4] = tested on: SN12C renal
# [5] = tested on: OVCAR-4 ovarian
# [6] = tested on: MDA-MB-231 breast
# [7] = tested on: LOX IMVI melanoma
# [8] = tested on: NCI-H226 lung
# [9] = tested on: HOP-92 NSCLC
# [10] = tested on: CAKI-1 renal
Compound,GI50 [1],TGI [1],GI50 [2],TGI [2],GI50 [3],TGI [3],GI50 [4],TGI [4],GI50 [5],TGI [5],GI50 [6],TGI [6],GI50 [7],TGI [7],GI50 [8],TGI [8],GI50 [9],TGI [9],GI50 [10],TGI [10]
O=c1[nH]cnc2nc(-c3ccc(N(CCCl)CCCl)cc3)[nH]c12,1.57 µM,6.5 µM,28.6 µM,> 100 µM,70.3 µM,> 100 µM,63.7 µM,> 100 µM,20.1 µM,> 100 µM,3.23 µM,> 100 µM,1.75 µM,> 100 µM,7.13 µM,80.6 µM,17.8 µM,> 100 µM,4.25 µM,> 100 µM
CN1N=Nc2c(C(F)(F)F)nn(-c3ccccc3)c2N(C)C1=O,> 100 µM,> 100 µM,> 100 µM,> 100 µM,> 100 µM,> 100 µM,> 100 µM,> 100 µM,> 100 µM,> 100 µM,> 100 µM,> 100 µM,> 100 µM,> 100 µM,> 100 µM,> 100 µM,> 100 µM,> 100 µM,> 100 µM,> 100 µM
O=C(O)c1ccc2cccnc2c1O,0.0521 µM,0.474 µM,0.999 µM,98.5 µM,2.02 µM,25 µM,0.797 µM,> 72.2 µM,0.411 µM,> 100 µM,–,> 100 µM,0.897 µM,28.4 µM,1.95 µM,> 56 µM,0.832 µM,2.74 µM,2.16 µM,13.8 µM
CC1(C)N=C(N)N=C(N)N1c1ccc(OCCCCNC(=O)c2ccc(S(=O)(=O)F)cc2)c(Cl)c1,51.1 µM,> 100 µM,6.21 µM,> 100 µM,8.04 µM,> 100 µM,4.47 µM,> 100 µM,93.7 µM,> 100 µM,66.2 µM,> 100 µM,1.9 µM,> 100 µM,76 µM,> 100 µM,> 100 µM,> 100 µM,43.8 µM,> 100 µM
